The nature of the data set: Linear voltammetry of substrate and product solutions on screen-printed carbon sensors. Type of data set: physicochemical. The conditions noted are these: linear voltammetry v=50 mV·s^−1; 5×10^−4 M in PBS (pH 7.5)—0.2% DMSO; vs. Ag/AgCl. The procedure: FIG. 2 represents the linear voltammograms (v=50 mV·s^−1) of a solution of substrate (p-AP-OG; S) and of product (p-AP-G; dashed curve; P) at 5×10^−4 M in PBS (pH 7.5)—0.2% DMSO.
The electrochemical measurements were carried out by linear voltammetry (v=50 mV·s^−1) with a 910 PSTAT mini potentiostat (Metrohm, France) powered through the USB connection of the computer and controlled by the PSTAT software (version 1.0). To do this, drops of solution of 30-50 μl were deposited on the surface of single-use screen-printed carbon sensors supplied by Dropsens (DRP-110) and connected to the potentiostat via the connector (DRP-DSC). The amperometric detection of the product generated during the reaction catalyzed by Ag85 was always carried out after a step of filtration of the reaction mixture with a filtration device (Microcon 10 kDa, Millipore). All the potentials are measured relative to the Ag/AgCl reference electrode.

As to `Nc1ccc(O[C@@H]2O[C@H](CO)[C@@H](O)[C@H](O)[C@H]2O)cc1` [p-AP-G, p-aminophenyl-β-D-glucopyranoside], the oxidation peak potential result is given as “~+0.4 V”.

`CCCCCCCC(=O)OC[C@H]1O[C@@H](Oc2ccc(N)cc2)[C@H](O)[C@@H](O)[C@@H]1O` [p-AP-OG, p-aminophenyl-6-O-octanoyl-β-D-glucopyranoside]: the oxidation peak potential result is listed as “~+0.2 V”.
